Test results taken from patent US4125605A, “Method of employing oral TRH” (The United States Government, priority 1977, dated 1978).

Key:
[1] = test system: women practicing full nursing; format: in vivo, human
Experimental: (§1) Sixty women volunteered for this major study and each was instructed to practice full nursing for at least 90 postpartum days. Fifty percent of the women were dropped from the study before the end of the first postpartum month due to changes in nursing patterns. The remaining 30 women were randomly divided into TRH and control groups. TRH, 5 mg or a lactose placebo, was administered daily at 0800 and 2000 h for 30 days beginning on day 29 postpartum. Blood and milk samples were obtained on the first postpartum day and at weekly intervals between 1500 and 1600 h. Thus, blood samples were never obtained sooner than 7 h after the ingestion of TRH. Each women's nursing pattern was recorded by nurse-midwives. Charts of infant growth and development were plotted weekly.
(§2) With regard to sampling procedures, individual blood samples were collected in heparinized vacuum tubes. Neither nursing nor maternal food intake had occurred in the previous 3 h. The sampling procedure in Examples II and III consisted of placing the patient at rest for a minimum of 15 min after which blood was drawn from an antecubital vein. Blood samples were centrifuged and plasma was removed and stored at -20C. Samples originating outside the continental United States were delivered to the laboratory at quarterly intervals in dry ice by special messenger.
(§3) In Examples II and III, milk was obtained from each breast following blood sampling and immediately prior to nursing. The women were instructed to grasp first the right and then the left breast, kneading it gently toward the nipple. Thus, 10 ml or more of the fore milk was removed with ease through each nipple and combined in a sterile container. The sample was thoroughly mixed by vigorous shaking. A compressed tablet of mercuric chloride and potassium dichromate was then added as a preservative to each sample before storing.
(§4) A set of specific radioimmunoassays were employed for the measurement of plasma hormones. PRL was measured by a modification of the radioimmunoassay of Hwang et al., Proc. Nat. Acad. Sci., 68:1902 (1971) using the iodination technique of Greenwood et al., Biochem J., 89:114 (1963). Plasma LH and FSH were measured by using a modification of the double antibody radioimmunoassay of Midgely, Endocrinology, 79:10 (1966). Thyrotropin (TSH) was determined by a double antibody radioimmunoassay of Odell, Rayford and Ross, J. Lab. Clin. Med., 70:973 (1967). Plasma thyroxine (T4) by column was measured by the method of Pileggi and Kessler, Clin. Chem., 14:339 (1968). A modification of the immunoassay of Roth et al., Science, 140:987 (1963), was used to measure plasma growth hormone (GH) utilizing the iodination technique for prolactin. Antibody bound radioactivity was separated by the dextran-charcoal method of Herbert et al., J. Clin. Endocrinol. Metab., 25:1375 (1965). Each of the references mentioned in this paragraph is incorporated herein by reference.
For the analysis of milk composition, samples were thawed and held at room temperature for no more than 30 min. Aliquots were analyzed for percent fat, protein and lactose concentrations using the infrared milk analyzer (IRMA). Samples less than 30 ml in volume (about 10% of the total) were diluted up to 35 ml with distilled water. These were then homogenized with a Biosonic Model 3 Ultrasonicater (Bronwill Scientific Co., Rochester, N.Y.) at an exposed intensity of 70 vibrations per second for 30 sec. These samples were stored overnight at 4° C. and then analyzed for composition. […]

[2] = test system: postpartum women; test: Low-dose TRH in postpartum women: prolactin versus thyrotropin response; format: in vivo, human
[3] = test system: nursing women between the 5th and 35 postpartum days; format: in vivo, human; conditions: 5 mg TRH oral single dose
Experimental: To test the efficacy of TRH, six nursing women between the 5th and 35 postpartum days were studied. Each received one 5 mg capsule of TRH in the early morning after an overnight fast. Six nursing women matched for postpartum interval received a placebo of lactose sugar. Blood samples were drawn from an indwelling catheter in an antecubital vein at -5,0,30,60,120, and 180 min.
as §4, with “Each of the references mentioned in this paragraph is incorporated herein by reference.” left out

[4] = 20 mg dosage capsules three times a day, oral; cited from earlier work
[5] = test system: puerperally lactating mothers; test: Reestablishment of lactation in puerperally lactating mothers after emergency surgery; format: in vivo, human; conditions: mothers separated from child by emergency surgery; with coincident sucking
Source text: The administration of TRH may also be initiated in puerperally lactating mothers who have to undergo emergency surgery such as polycystectomy, apendectomy, or the repair of fractures. Such surgery usually takes the mother away from the child for periods of time up to 14 days and a mother who is desirous of breastfeeding may find great difficulty in reestablishing lactation when she returns home from the hospital. In such cases, the administration of TRH has been associated with the reestablishment of lactation within 48 hours. It is to be emphasized that such lactation cannot be firmly established without coincident sucking of the nipple by the child.

[6] = test system: women with insufficient lactation; parameters: species or system human; conditions: in vivo
Experimental: as §4
As an experimental exercise, two women with insufficient lactation gave consent for the administration of 40 mg of oral TRH twice a day or the same time schedule as noted above. On the 7th day of therapy the patients were reevaluated and found to have lost weight. Their pulse rate was elevated as was their blood pressure. […]

[7] = test system: women with lactational insufficiency practicing partial nursing; test: Example III: oral TRH 5 mg or 20 mg twice a day for 5 days in women with lactational insufficiency; format: in vivo, human
Experimental: A group of 13 women with lactational insufficiency practicing partial nursing between 13-71 postpartum days were next studied. Four received TRH 5 mg and nine received 20 mg twice a day at 0800 and 2000 h for 5 days. Blood samples were obtained prior to the first capsule and daily thereafter for 5 days before taking the morning dose of TRH. Daily milk samples were also collected.
as §2, §3, §4
For the analysis of milk composition, samples were thawed and held at room temperature for no more than 30 min. Aliquots were analyzed for percent fat, protein and lactose concentrations using the infrared milk analyzer (IRMA). Samples less than 30 ml in volume (about 10% of the total) were diluted up to 35 ml with distilled water. These were then homogenized with a Biosonic Model 3 Ultrasonicater (Bronwill Scientific Co., Rochester, N.Y.) at an exposed intensity of 70 vibrations per second for 30 sec. These samples were stored overnight at 4° C. and then analyzed for composition. Corrections were made for any dilution.

[8] = test system: surrogate mothers; test: Induction of lactation in surrogate (adoptive) mothers with conjugated estrogens plus oral TRH; format: in vivo, human
Source text: An additional use of TRH is in surrogate mothers. Studies in accordance with the present invention have involved the administration of TRH to adoptive mothers. In most instances, such women have undergone voluntary sterilization following the birth of natural children but, for one reason or another, wish to have another child. By the present invention, lactation has been induced in such women for the benefit of their adopted child by attempting to simulate the effects of pregnancy on prolactin secretion and, at the same time, by requesting that the […] practice auto-stimulation of the nipple. The technique of stimulation is as follows: Women are treated with 5 to 10 mg of conjugated estrogens equine twice a day for 14 days. Caution with regard to the possibility of side effects is given to each woman based upon the known effects of such estrogens on the vascular system. Beginning on the 7th day of estrogen treatment, oral TRH 5-10 mg twice a day, at intervals of about 12 hours, is administered for the final 7 days of treatment with estrogen. At the end of the 14th estrogen-treatment day, TRH is continued while the frequency of nipple stimulation is increased from four times daily to every 4 hours. In the women studied thus far, milk production can be induced within 72 hours following the withdrawal of the estrogen. […]

[9] = test system: infants of TRH-treated mothers; parameters: species or system human; conditions: in vivo, po
Experimental: as §1, with “Charts of infant growth and development were plotted weekly.” left out
A set of specific radioimmunoassays were employed for the measurement of plasma hormones. PRL was measured by a modification of the radioimmunoassay of Hwang et al., Proc. Nat. […] Plasma LH and FSH were measured by using a modification of the double antibody radioimmunoassay of Midgely, Endocrinology, 79:10 (1966). Thyrotropin (TSH) was determined by a double antibody radioimmunoassay of Odell, Rayford and Ross, J. Lab. […] Plasma thyroxine (T4) by column was measured by the method of Pileggi and Kessler, Clin. Chem., 14:339 (1968). […] Antibody bound radioactivity was separated by the dextran-charcoal method of Herbert et al., J. Clin. Endocrinol. […]

[10] = 5 mg TRH every 12 h for 5 days, four women
[11] = 20 mg twice daily, Day 1 (before initial ingestion)

SMILES: NC(=O)[C@@H]1CCCN1C(=O)[C@H](Cc1cnc[nH]1)NC(=O)[C@@H]1CCC(=O)N1 [TRH, thyrotropin releasing hormone]
- weekly 1500 h maternal PRL concentration ([1]; 5 mg TRH twice daily for 30 days, full nursing): not associated with any significant change
- milk composition (percent of fat and protein concentration) ([1]; TRH versus control group, full nursing): did not differ significantly
- bleeding patterns (postovulatory vaginal bleeding) ([1]; beyond the 14th postpartum week, TRH-treated versus placebo-treated mothers): no difference
- T4 values ([1]; in vivo): normal
- gonadotropin levels ([1]; measured weekly, TRH versus controls): identical in controls
- dose for maximum prolactin response, times lower than dose for threshold thyrotropin secretion [2]: 5 to 10 times
- instances in which peripheral prolactin concentration is elevated ([2]; TRH in low doses): 95%
- mean maximal PRL increment ([3]; at 60 min, six nursing mothers): 46.3 ng/mL
- peripheral PRL throughout the sampling period ([3]; sampling to 180 min): remained elevated
- effect on the yield or composition of milk [4]: no significant effect
- time to reestablishment of lactation [5]: ≤ 48 h
- reevaluation after discontinuation [6]: no clinical or laboratory evidence of hyperthyroidism
- increase in the PRL concentration [7, 10]: 50%
- milk production and letdown [7, 10]: increased
- % Milk fat, Mean ± SE [7, 11]: 2.99±0.4%
- % Milk protein, Mean ± SE [7, 11]: 1.81±0.2%
- Plasma PRL, Mean ± SE ([7]; 20 mg twice daily, Day 1 (before initial ingestion), nine women): 27.8 ± 5.3 ng/mL
- % Milk fat, Mean ± SE ([7]; 20 mg twice daily, Day 2, NS): 3.88±0.6%
- % Milk protein, Mean ± SE ([7]; 20 mg twice daily, Day 2, NS): 1.63±0.2%
- Plasma PRL, Mean ± SE ([7]; 20 mg twice daily, Day 2, P .0005 vs day 1): 53.1 ± 8.7 ng/mL
- % Milk fat, Mean ± SE ([7]; 20 mg twice daily, Day 3, NS): 3.21± 0.4%
- % Milk protein, Mean ± SE ([7]; 20 mg twice daily, Day 3, NS): 1.61± 0.1%
- Plasma PRL, Mean ± SE ([7]; 20 mg twice daily, Day 3, P .005 vs day 1): 73.3 ± 12.4 ng/mL
- % Milk fat, Mean ± SE ([7]; 20 mg twice daily, Day 4, NS): 3.79±0.4%
- % Milk protein, Mean ± SE ([7]; 20 mg twice daily, Day 4, NS): 1.62±0.1%
- Plasma PRL, Mean ± SE ([7]; 20 mg twice daily, Day 4, NS vs day 1): 44.1 ± 7.0 ng/mL
- % Milk fat, Mean ± SE ([7]; 20 mg twice daily, Day 5, NS): 3.02±0.2%
- % Milk protein, Mean ± SE ([7]; 20 mg twice daily, Day 5, NS): 1.60±0.1%
- Plasma PRL, Mean ± SE ([7]; 20 mg twice daily, Day 5, NS vs day 1): 54.8 ± 13.9 ng/mL
- mean percent fat composition of milk, greater than pretreatment ([7]; 20 mg twice daily, day two of treatment, difference not significant): ~1%
- percent of lactose concentration in milk ([7]; milk samples obtained from all studies): remained constant
- return to full nursing ([7]; partially nursing women after TRH ingestion): all were able to return to full nursing
- breast engorgement and milk letdown ([7]; reported by each woman as a result of TRH ingestion): subjective and objective increases
- time to induction of milk production following the withdrawal of the estrogen ([8]; conjugated estrogens equine 5 to 10 mg twice a day 14 days, oral TRH 5-10 mg twice a day from 7th day, nipple stimulation): ≤ 72 h
- basal plasma prolactin concentration ([8]; conjugated estrogens equine then oral TRH 5-10 mg twice a day, surrogate mothers): increase
- infant plasma growth hormone [9]: 32.2 ± 4.9 ng/mL
- infant plasma prolactin [9]: 200.3 ± 19.2 ng/mL
